From US7507727B2, “Substituted quinobenzoxazine analogs and methods of using thereof” (Cylene Pharmaceuticals, Inc., priority 2003, dated 2009)

Molecular target: c-Myc template DNA (c-myc quadruplex)
Assay: Quadruplex binding / stop assay (Taq polymerase arrest, capillary electrophoresis)
Settings: read-out: Stop Data c-Myc μM; concentration at which 50% of the DNA was arrested (arrested:full-length 1:1)

For `CCCCN(CCCC)CCCNc1c(F)cc2c(=O)c(C(=O)N3CCOCC3)cn3c2c1Oc1cc2ccccc2cc1-3` [compound 45], the IC50 was 2.5 µM.

Compound `O=C(Nc1nnc(C(F)(F)F)s1)c1cn2c3c(c(NCCN4CCCC4)c(F)cc3c1=O)Oc1ccccc1-2` [compound 46] has an IC50 of 2.5 µM.

For `O=C(NCCCN1CCOCC1)c1cn2c3c(c(NCCCN4CCOCC4)c(F)cc3c1=O)Oc1ccccc1-2` [compound 47], the IC50 was 2.5 µM.

Work on `O=C(NCCN1CCOCC1)c1cn2c3c(c(NCCCN4CCOCC4)c(F)cc3c1=O)Oc1cc3ccccc3cc1-2` [compound 48] yielded an IC50 of 2.5 µM.

With `CN1CCN(CCCNC(=O)c2cn3c4c(c(NCCCN5CCOCC5)c(F)cc4c2=O)Oc2cc4ccccc4cc2-3)CC1` [compound 49] the IC50 was 2.5 µM.

In the case of `CC(C)(C)OC(=O)N[C@@H]1CCN(C(=O)c2cn3c4c(c(NCCCN5CCOCC5)c(F)cc4c2=O)Oc2cc4ccccc4cc2-3)C1` [compound 50], the IC50 is reported as 2.5 µM.

Compound `CN1CCCC1CCNC(=O)c1cn2c3c(c(NCCCN4CCOCC4)c(F)cc3c1=O)Oc1cc3ccccc3cc1-2` (centres unmarked) [compound 51] has an IC50 of 2.5 µM.

`CN(C)CCCCNC(=O)c1cn2c3c(c(NCCCN4CCOCC4)c(F)cc3c1=O)Oc1cc3ccccc3cc1-2` [compound 52] was tested, and the IC50 was 2.5 µM.

`O=C(NCCCN1CCOCC1)c1cn2c3c(c(NCCN4CCOCC4)c(F)cc3c1=O)Oc1cc3ccccc3cc1-2` [compound 53] showed an IC50 of 2.5 µM.

In the case of `O=C(NCCN1CCOCC1)c1cn2c3c(c(NCCN4CCOCC4)c(F)cc3c1=O)Oc1cc3ccccc3cc1-2` [compound 54], the IC50 is reported as 2.5 µM.

For `CN1CCN(CCCNC(=O)c2cn3c4c(c(NCCN5CCOCC5)c(F)cc4c2=O)Oc2cc4ccccc4cc2-3)CC1` [compound 55], the IC50 was 2.5 µM.

`CC(C)(C)OC(=O)N[C@@H]1CCN(C(=O)c2cn3c4c(c(NCCN5CCOCC5)c(F)cc4c2=O)Oc2cc4ccccc4cc2-3)C1` [compound 56] showed an IC50 of 2.5 µM.

`CN1CCCC1CCNC(=O)c1cn2c3c(c(NCCN4CCOCC4)c(F)cc3c1=O)Oc1cc3ccccc3cc1-2` (centres unmarked) [compound 57] was tested, and the IC50 was 2.5 µM.

`O=C(NCCN1CCCC1)c1cn2c3c(c(NCCN4CCOCC4)c(F)cc3c1=O)Oc1cc3ccccc3cc1-2` [compound 58] gave an IC50 of 2.5 µM.

`CN(C)CCCCNC(=O)c1cn2c3c(c(NCCN4CCOCC4)c(F)cc3c1=O)Oc1cc3ccccc3cc1-2` [compound 59] gave an IC50 of 2.5 µM.

In the case of `CN1CCN(CCCNc2c(F)cc3c(=O)c(C(=O)NCCN4CCOCC4)cn4c3c2Oc2cc3ccccc3cc2-4)CC1` [compound 60], the IC50 is reported as 2.5 µM.

`CN1CCN(CCCNc2c(F)cc3c(=O)c(C(=O)N4CC[C@@H](NC(=O)OC(C)(C)C)C4)cn4c3c2Oc2cc3ccccc3cc2-4)CC1` [compound 61] gave an IC50 of 2.5 µM.

For `CC(C)(C)OC(=O)N[C@@H]1CCN(c2c(F)cc3c(=O)c(C(=O)NCCCN4CCOCC4)cn4c3c2Oc2cc3ccccc3cc2-4)C1` [compound 62], the IC50 was 2.5 µM.

Compound `CC(C)(C)OC(=O)N[C@@H]1CCN(c2c(F)cc3c(=O)c(C(=O)NCCN4CCOCC4)cn4c3c2Oc2cc3ccccc3cc2-4)C1` [compound 63] has an IC50 of 2.5 µM.

For `CN1CCN(CCCNC(=O)c2cn3c4c(c(N5CC[C@@H](NC(=O)OC(C)(C)C)C5)c(F)cc4c2=O)Oc2cc4ccccc4cc2-3)CC1` [compound 64], the IC50 was 2.5 µM.

`CC(C)(C)OC(=O)N[C@@H]1CCN(C(=O)c2cn3c4c(c(N5CC[C@@H](NC(=O)OC(C)(C)C)C5)c(F)cc4c2=O)Oc2cc4ccccc4cc2-3)C1` [compound 65] was tested, and the IC50 was 2.5 µM.

`CN(C)CCCCNC(=O)c1cn2c3c(c(N4CC[C@@H](NC(=O)OC(C)(C)C)C4)c(F)cc3c1=O)Oc1cc3ccccc3cc1-2` [compound 66] gave an IC50 of 2.5 µM.

`CN1CCCC1CCNc1c(F)cc2c(=O)c(C(=O)NCCN3CCOCC3)cn3c2c1Oc1cc2ccccc2cc1-3` (centres unmarked) [compound 67] gave an IC50 of 2.5 µM.

For `CN1CCCC1CCNc1c(F)cc2c(=O)c(C(=O)N3CC[C@@H](NC(=O)OC(C)(C)C)C3)cn3c2c1Oc1cc2ccccc2cc1-3` (some centres unmarked) [compound 68], the IC50 was 2.5 µM.

In the case of `O=C(NCCCN1CCOCC1)c1cn2c3c(c(NCCN4CCCC4)c(F)cc3c1=O)Oc1cc3ccccc3cc1-2` [compound 69], the IC50 is reported as 2.5 µM.

In the case of `O=C(NCCN1CCOCC1)c1cn2c3c(c(NCCN4CCCC4)c(F)cc3c1=O)Oc1cc3ccccc3cc1-2` [compound 70], the IC50 is reported as 2.5 µM.

With `CN1CCN(CCCNC(=O)c2cn3c4c(c(NCCN5CCCC5)c(F)cc4c2=O)Oc2cc4ccccc4cc2-3)CC1` [compound 71] the IC50 was 2.5 µM.

Compound `CC(C)(C)OC(=O)N[C@@H]1CCN(C(=O)c2cn3c4c(c(NCCN5CCCC5)c(F)cc4c2=O)Oc2cc4ccccc4cc2-3)C1` [compound 72] has an IC50 of 2.5 µM.

With `CN1CCCC1CCNC(=O)c1cn2c3c(c(NCCN4CCCC4)c(F)cc3c1=O)Oc1cc3ccccc3cc1-2` (centres unmarked) [compound 73] the IC50 was 2.5 µM.

`O=C(NCCN1CCCC1)c1cn2c3c(c(NCCN4CCCC4)c(F)cc3c1=O)Oc1cc3ccccc3cc1-2` [compound 74] gave an IC50 of 2.5 µM.

Compound `CN1CCN(C(=O)c2cn3c4c(c(NCCC5CCCN5C)c(F)cc4c2=O)Oc2c-3ccc3ccccc23)CC1` (centres unmarked) [compound 75] has an IC50 of 2.5 µM.

Compound `CN(C)CCCCNc1c(F)cc2c(=O)c(C(=O)Nc3ccc(N(C)C)cc3)cn3c2c1Oc1c-3ccc2ccccc12` [compound 76] has an IC50 of 2.5 µM.

`N[C@@H]1CCN(c2c(F)cc3c(=O)c(C(=O)NCCN4CCOCC4)cn4c3c2Oc2c-4ccc3ccccc23)C1` [compound 77] showed an IC50 of 2.5 µM.

In the case of `N[C@@H]1CCN(C(=O)c2cn3c4c(c(N5CC[C@@H](N)C5)c(F)cc4c2=O)Oc2c-3ccc3ccccc23)C1` [compound 78], the IC50 is reported as 2.5 µM.

Compound `N[C@@H]1CCN(c2c(F)cc3c(=O)c(C(=O)N4CCOCC4)cn4c3c2Oc2c-4ccc3ccccc23)C1` [compound 79] has an IC50 of 2.5 µM.

With `CN(CCc1ccccn1)C(=O)c1cn2c3c(c(N4CC[C@@H](N)C4)c(F)cc3c1=O)Oc1c-2ccc2ccccc12` [compound 80] the IC50 was 2.5 µM.

`CN1CCN(C(=O)c2cn3c4c(c(N5CC[C@@H](N)C5)c(F)cc4c2=O)Oc2c-3ccc3ccccc23)CC1` [compound 81] was tested, and the IC50 was 2.5 µM.

`CN(C)c1ccc(NC(=O)c2cn3c4c(c(N5CC[C@@H](N)C5)c(F)cc4c2=O)Oc2c-3ccc3ccccc23)cc1` [compound 82] gave an IC50 of 2.5 µM.

`N[C@@H]1CCN(C(=O)c2cn3c4c(c(NCCCN5CCOCC5)c(F)cc4c2=O)Oc2c-3ccc3ccccc23)C1` [compound 83] gave an IC50 of 2.5 µM.

Compound `N[C@@H]1CCN(C(=O)c2cn3c4c(c(NCCN5CCOCC5)c(F)cc4c2=O)Oc2c-3ccc3ccccc23)C1` [compound 84] has an IC50 of 2.5 µM.

In the case of `CN1CCCC1CCNc1c(F)cc2c(=O)c(C(=O)N3CC[C@@H](N)C3)cn3c2c1Oc1c-3ccc2ccccc12` (some centres unmarked) [compound 85], the IC50 is reported as 2.5 µM.

For `N[C@@H]1CCN(C(=O)c2cn3c4c(c(NCCN5CCCC5)c(F)cc4c2=O)Oc2c-3ccc3ccccc23)C1` [compound 86], the IC50 was 2.5 µM.

`CN1CCCC1CCNc1c(F)cc2c(=O)c(C(=O)NCCN3CCCC3)cn3c2c1Oc1cc2c(cc1-3)oc1ccccc12` (centres unmarked) [compound 87] showed an IC50 of 2.5 µM.

For `CN1CCN(CCCNC(=O)c2cn3c4c(c(NC(=O)CCN5CCCC5)c(F)cc4c2=O)Oc2cc4ccccc4cc2-3)CC1` [compound 88], the IC50 was 2.5 µM.

With `CN1CCCC1CCNC(=O)c1cn2c3c(c(NC(=O)CCN4CCCC4)c(F)cc3c1=O)Oc1cc3ccccc3cc1-2` (centres unmarked) [compound 89] the IC50 was 2.5 µM.

`O=C(CCN1CCCC1)Nc1c(F)cc2c(=O)c(C(=O)NCCN3CCCC3)cn3c2c1Oc1cc2ccccc2cc1-3` [compound 90] showed an IC50 of 2.5 µM.

For `CN1CCN(CCCNC(=O)c2cn3c4cc5c(=O)c6ccccc6c(=O)c5cc4oc4c(N5CCC(N)C5)c(F)cc(c2=O)c43)CC1` (centres unmarked) [compound 91], the IC50 was 2.5 µM.

Compound `CN1CCN(C(=O)c2cn3c4cc5c(=O)c6ccccc6c(=O)c5cc4oc4c(N5CCC(N)C5)c(F)cc(c2=O)c43)CC1` (centres unmarked) [compound 92] has an IC50 of 2.5 µM.

In the case of `CN1CCCC1CCNc1c(F)cc2c(=O)c(C(=O)N3CCC(N)C3)cn3c4cc5c(=O)c6ccccc6c(=O)c5cc4oc1c23` (centres unmarked) [compound 93], the IC50 is reported as 2.5 µM.

`NC1CCN(C(=O)c2cn3c4cc5c(=O)c6ccccc6c(=O)c5cc4oc4c(NCCCN5CCOCC5)c(F)cc(c2=O)c43)C1` (centres unmarked) [compound 94] was tested, and the IC50 was 2.5 µM.

With `CN1CCN(CCCNc2c(F)cc3c(=O)c(C(=O)N4CCC(N)C4)cn4c5cc6c(=O)c7ccccc7c(=O)c6cc5oc2c34)CC1` (centres unmarked) [compound 95] the IC50 was 2.5 µM.

`CN(C)CCCCNc1c(F)cc2c(=O)c(C(=O)N3CCC(N)C3)cn3c4cc5c(=O)c6ccccc6c(=O)c5cc4oc1c23` (centres unmarked) [compound 96] showed an IC50 of 2.5 µM.

In the case of `CN1CCN(c2c(F)cc3c(=O)c(C(=O)N4CCC(N)C4)cn4c5cc6c(=O)c7ccccc7c(=O)c6cc5oc2c34)CC1` (centres unmarked) [compound 97], the IC50 is reported as 2.5 µM.

In the case of `CN(C)/C=N/C1CCN(c2c(F)cc3c(=O)c(C(=O)NCCC4CCCN4C)cn4c3c2Oc2cc3ccccc3cc2-4)C1` (centres unmarked) [compound 98], the IC50 is reported as 2.5 µM.

`NCc1cn2c3c(c(N4CCC(N)C4)c(F)cc3c1=O)Oc1cc3ccccc3cc1-2` (centres unmarked) [compound 99] gave an IC50 of 2.5 µM.

`COc1cccc(CCNc2c(F)cc3c(=O)c(C(=O)NCCC4CCCN4C)cn4c3c2Oc2cc3ccccc3cc2-4)c1OC` (centres unmarked) [compound 100] gave an IC50 of 2.5 µM.

Work on `CN1CCCC1CCNC(=O)c1cn2c3c(c(F)c(F)cc3c1=O)Oc1cc3ccccc3cc1-2` (centres unmarked) [compound 101] yielded an IC50 of 2.25 µM.

`N[C@@H]1CCN(c2c(F)cc3c(=O)c(C(=O)NCCCN4CCOCC4)cn4c3c2Oc2c-4ccc3ccccc23)C1` [compound 103] showed an IC50 of 1.8 µM.

`O=C(NCCN1CCCC1)c1cn2c3c(c(F)c(F)cc3c1=O)Oc1cc3c(cc1-2)oc1ccccc13` [compound 113] gave an IC50 of 1.75 µM.

With `CN1CCCC1CCNc1c(F)cc2c(=O)c(-c3nc4ccccc4s3)cn3c2c1Oc1cc2ccccc2cc1-3` (centres unmarked) [compound 114] the IC50 was 1.75 µM.

In the case of `O=C(c1cn2c3c(c(NCCN4CCCCC4)c(F)cc3c1=O)Oc1cc3ccccc3cc1-2)N1CCOCC1` [compound 115], the IC50 is reported as 1.75 µM.

For `O=C(c1cn2c3c(c(NC4CCNC4)c(F)cc3c1=O)Oc1cc3ccccc3cc1-2)N1CCOCC1` (centres unmarked) [compound 116], the IC50 was 1.75 µM.

`O=C(c1cn2c3c(c(NCCCNC4CCCCC4)c(F)cc3c1=O)Oc1cc3ccccc3cc1-2)N1CCOCC1` [compound 117] showed an IC50 of 1.75 µM.

Compound `O=C(Nc1nc2ccccc2s1)c1cn2c3c(c(NCCN4CCCC4)c(F)cc3c1=O)Oc1ccccc1-2` [compound 118] has an IC50 of 1.75 µM.

`CN1CCN(CCCNc2c(F)cc3c(=O)c(C(=O)NCCCN4CCOCC4)cn4c3c2Oc2cc3ccccc3cc2-4)CC1` [compound 119] gave an IC50 of 1.75 µM.
